Laboratory results reported in patent publication US7232559B1, “Diagnostic agents for pancreatic exocrine function” (Tokyo Gas Company Limited, priority 1999, dated 2007).
Several values for one entry are separate records, joined by “and”; a condition that tells them apart may be missing. Identical values can stand only once. Primed or numbered codes have the meaning given here. 13C‑Gly = glycine labeled with carbon-13 (13C); Bz′ = not defined here

Key:
Wistar male rat pancreas = test: Model of chronic pancreatitis by oleic acid injection into the pancreatic duct: enzyme contents; type: in vivo
Protocol: A model of chronic pancreatitis in rats were prepared by injecting oleic acid into the pancreatic duct (Mundlos et al., Pancreas 1:29 (1986)). After overnight fast, a Wistar male rat of 5 weeks old was anesthetized by intraperitoneal administration of Nembutal (50 mg/kg). The abdominal wall was shaved and the rat was fixed supinely on an operating table. An Isodine solution was applied to sterilize, and a 3 to 4 cm midline incision was made on the abdomen. The duodenum and the pancreas were drawn out and a 25 G needle was pierced through the duodenal wall. A polyethylene cannula (PE-10) was inserted through the pierced hole into the duodenum and further inserted into the common bile duct by about 5 mm from the papilla. The inserted cannula was fixed by a microclip. Further, the biliary duct was closed by a microclip in order to prevent oleic acid from flowing into the liver. Oleic acid (50 μl) was injected at a rate of 20 μl/min by a microsyringe pump. After the injection was completed, the rat was allowed to stand for 2 minutes so that the oleic acid was distributed throughout the pancreas. The microclips and cannula were removed and the duodenum was returned. The endothelium was sutured with silk thread (Nescosuture silk suture thread 3-0, Nihon Shoji KK) and the outer skin was sutured with a skin stapler (Appose ULC, No. 8034-12, 5.7×3.8 mm). As a control, only laparotomy was carried out. These rats subjected to the operation were kept under free intake of standard food and water at 23° C., relative humidity of 55% until use. After injecting oleic acid into the pancreatic duct and being kept for 3 weeks, these rats (oleic acid-injected rats) were subjected to measurement of amylase in the blood, and to quantitative determination of chymotrypsinogen and amylase contents in the pancreas (FIG. 1). An extraction buffer (20 mM HEPPS+Na, pH 8.0, 100 mM KCl, 0.5% (w/v) Triton X-100) was added to the removed pancreas to the total volume of 10 ml. The material was subjected to ultrasonic disruption (Bionic 7250, Seiko, Sonics & Materials) and centrifuged at 10,000×g for 20 minutes to yield a pancreatic extract as a supernatant. […] After the reaction, 10 μl of 100% (W/V) TCA solution was added and centrifuged at 15,000×g for 5 minutes and the PABA in the supernatant was quantitatively determined using a PABA measuring kit (Eisai). The amylase activity in the pancreatic extract was measured using Fuji Dri-Chem. Both units of activity (U) show μ mole release/min.

[1] = tested on: chronic pancreatitis rats and control (normal) rats; test: ^13C-breath test (Δ^13C in exhaled CO2 after oral administration); type: in vivo, rat; conditions: for Δ^13C (‰) value at 30 minutes after the administration (group mean): 30 mg/kg oral; for Δ^13C (‰) (mean) value at 15 minutes after the administration: 420 mg/kg oral
Protocol: A model of chronic pancreatitis in rats were prepared by injecting oleic acid into the pancreatic duct (Mundlos et al., Pancreas 1:29 (1986)). After overnight fast, a Wistar male rat of 5 weeks old was anesthetized by intraperitoneal administration of Nembutal (50 mg/kg). The abdominal wall was shaved and the rat was fixed supinely on an operating table. An Isodine solution was applied to sterilize, and a 3 to 4 cm midline incision was made on the abdomen. The duodenum and the pancreas were drawn out and a 25 G needle was pierced through the duodenal wall. A polyethylene cannula (PE-10) was inserted through the pierced hole into the duodenum and further inserted into the common bile duct by about 5 mm from the papilla. The inserted cannula was fixed by a microclip. Further, the biliary duct was closed by a microclip in order to prevent oleic acid from flowing into the liver. Oleic acid (50 μl) was injected at a rate of 20 μl/min by a microsyringe pump. After the injection was completed, the rat was allowed to stand for 2 minutes so that the oleic acid was distributed throughout the pancreas. The microclips and cannula were removed and the duodenum was returned. The endothelium was sutured with silk thread (Nescosuture silk suture thread 3-0, Nihon Shoji KK) and the outer skin was sutured with a skin stapler (Appose ULC, No. 8034-12, 5.7×3.8 mm). As a control, only laparotomy was carried out. These rats subjected to the operation were kept under free intake of standard food and water at 23° C., relative humidity of 55% until use.
The rat of 9 weeks old was fixed without anesthesia in a rat holder for a microwave irradiation apparatus. The breath was collected at a rate of about 100 to 300 ml/min using a stroke pump (Variable Stroke Pump VS-500, Shibata Kagaku Kogyo) and introduced directly to a flow cell of a ^13CO2 analyzer EX-130S (Nihon Bunko). A Perma Pure drier (MD-050-12P, Perma Pure INC.) was set between the rat holder and stroke pump to remove out water vapor in the breath. […]
Output data from the ^13CO2 analyzer were AD converted and put into a personal computer (Apple Power Macintosh 8500). Using a data processing soft ware Lab VIEW (National Instruments), 10 data points at every 100 msec were integrated and averaged in an interval of 5 seconds and converted to ^13C atom %, Δ^13C (‰), and CO2 concentration (%) In this manner, the ^13C breath test was continuously carried out. […] CO2 concentration in the collected breath was held at 3±0.5%.
Δ^13C (‰) was calculated from the ^13C concentration in the exhaled CO2 at each time point (^13C tmin) and the ^13C concentration in standard CO2 (^13C std) according to the following equation: Δ^13C (‰)=[(^13C tmin−^13C 0min)/^13C std]×1000

[2] = target: T1, chymotrypsin (from bovine pancreas) (Bos taurus, UniProt P00766); test: Degradation by chymotrypsin (leucine released, ninhydrin reaction); type: biochemical
T1 construct: purchased Worthington Biochemical Corporation #1432, Lot 37A906; host or cells: bovine pancreas (natural source)
Protocol: Bz-DL-Phe-(^13C-Leu) was reacted with chymotrypsin and the degradation product, leucine, generated upon action of chymotrypsin was quantitatively determined by ninhydrin reaction. The reaction was carried out in 20 mM HEPPS-Na (pH 8.0), 23 mM Bz-DL-Phe-(^13C-Leu), 0.16 mg/ml chymotrypsin (from bovine pancreas, Worthington Biochemical Corporation, #1432, Lot 37A906) at 37° C. for 15 minutes. After reaction, 50 μl of citrate buffer (citric acid monohydrate), 20 μl of ninhydrin solution (50 mg/ml solution in methyl cellosolve) and 100 μl of KCN solution (0.01 M aqueous KCN solution diluted 50 times with methyl cellosolve) were added to 100 μl of the reaction mixture and heated at 100° C. for 15 minutes. After cooling the ninhydrin reaction mixture to room temperature, 150 μl of 60% (V/V) ethanol was added to 100 μl of the ninhydrin reaction mixture and stirred followed by determination of an absorbance at a wave length of 570 nm. An experiment wherein all the reactions that were carried out without adding Bz-DL-Phe-(^13C-Leu) was taken as a “blank,” and leucine was used as a standard.

[3] = oleic acid-injected rats (n=17), 50 μl into pancreatic duct, 3 weeks after
[4] = chronic pancreatitis rats #1-#4, 250 mg/kg oral
[5] = chronic pancreatitis rats (n=4), 250 mg/kg oral
[6] = normal rats #1-#4, 250 mg/kg oral
[7] = normal rats (n=4), 250 mg/kg oral

CCCCCCCC/C=C\CCCCCCCC(=O)O [oleic acid]
rats evaluated to have pancreatitis (chymotrypsinogen content below mean−2SD of control) (Wistar male rat pancreas; 12 rats among 17 oleic acid-injected rats): 70% | blood amylase concentration (Wistar male rat pancreas; oleic acid-injected rats (n=17), 3 weeks after): 2137 U | amylase content in the pancreas (Wistar male rat pancreas; [3]): 789 U | chymotrypsinogen content in the pancreas (Wistar male rat pancreas; [3]): 8.1 U

Arg-(^13C-Leu)
Δ^13C (‰) at 30 min, individual rat ([1]; chronic pancreatitis rats #1-#4, 30 mg/kg oral): 3.74 ‰ and 6.97 ‰ and 4.87 ‰ and 1.92 ‰ | Δ^13C (‰) value at 30 minutes after the administration (group mean) ([1]; chronic pancreatitis rats (n=4)): 4.37±1.83 ‰ | Δ^13C (‰) at 30 min, individual rat ([1]; normal rats #1-#4, 30 mg/kg oral): 13.74 ‰ and 15.37 ‰ and 10.08 ‰ and 10.30 ‰ | Δ^13C (‰) value at 30 minutes after the administration (group mean) ([1]; normal rats (n=4)): 12.37±2.26 ‰

Bz-Ala-Ala-Ala-Ala-(^13C-Gly)-Phe-Leu ({Bz′}-AAAA-{13C‑Gly-Phe-Leu})
Δ^13C (‰) at 15 min, individual rat ([1]; chronic pancreatitis rats #1-#2, 420 mg/kg oral): −1.90 ‰ and 3.12 ‰ | Δ^13C (‰) (mean) value at 15 minutes after the administration ([1]; chronic pancreatitis rats (n=2)): 0.61 ‰ | Δ^13C (‰) at 15 min, individual rat ([1]; normal rats #1-#2, 420 mg/kg oral): 23.47 ‰ and 43.16 ‰ | Δ^13C (‰) (mean) value at 15 minutes after the administration ([1]; normal rats (n=2)): 33.32 ‰

Bz-Arg-(^13C-Leu).HCl
Δ^13C (‰) at 20 min, individual rat ([1]; chronic pancreatitis rats #1-#3, 100 mg/kg oral): 3.69 ‰ and 11.25 ‰ and −5.79 ‰ | Δ^13C (‰) value at 20 minutes after the administration (group mean) ([1]; chronic pancreatitis rats (n=3), 100 mg/kg oral): 3.05±6.97 ‰ | Δ^13C (‰) at 20 min, individual rat ([1]; normal rats #1-#3, 100 mg/kg oral): 79.91 ‰ and 51.94 ‰ and 74.46 ‰ | Δ^13C (‰) value at 20 minutes after the administration (group mean) ([1]; normal rats (n=3), 100 mg/kg oral): 68.77±12.01 ‰

Bz-DL-Phe-(^13C-Leu)
rate of degradation ([2]; 23 mM substrate, 0.16 mg/ml chymotrypsin, 20 mM HEPPS-Na pH 8.0, 37° C., 15 minutes): 1.72 nmole/mg chymotrypsin/min | substrate for chymotrypsin ([2]; same reaction, leucine produced): could be a substrate for chymotrypsin | time course of Δ^13C (‰) ([1]; 7 cases of the chronic pancreatitis rats (n=8), 250 mg/kg oral): the degree of increase was small and continued to slowly increase for 30 minutes

Bz-L-Phe-(^13C-Leu)
Δ^13C (‰) at 10 min, individual rat [1, 4]: 1.61 ‰ and 3.28 ‰ and 17.21 ‰ and 5.77 ‰ | Δ^13C (‰) value at 10 minutes after the administration (group mean) [1, 5]: 6.97±6.09 ‰ | Δ^13C (‰) at 10 min, individual rat [1, 6]: 60.25 ‰ and 165.37 ‰ and 203.16 ‰ and 31.29 ‰ | Δ^13C (‰) value at 10 minutes after the administration (group mean) [1, 7]: 115.02±71.26 ‰

Bz-Tyr-(^13C-Leu)
Δ^13C (‰) at 20 min, individual rat [1, 4]: 8.76 ‰ and 3.58 ‰ and 2.44 ‰ and −0.15 ‰ | Δ^13C (‰) value at 20 minutes after the administration (group mean) [1, 5]: 3.66±3.24 ‰ | Δ^13C (‰) at 20 min, individual rat [1, 6]: 65.76 ‰ and 21.02 ‰ and 80.02 ‰ and 111.32 ‰ | Δ^13C (‰) value at 20 minutes after the administration (group mean) [1, 7]: 69.53±32.50 ‰
